Source: a melting point compilation (Tetko et al.; mined from patent text by program, amines drawn as free bases though some values may be those of a salt)

| Structure (SMILES) | melting point [°C] |
| --- | --- |
| CS(=O)(=O)c1ccc(-c2cc3c(cc2C(=O)c2cc(F)cc(F)c2)OCCO3)cc1 | 191 to 193 |
| COc1ccc(-c2c(Cl)c(CNC(=O)c3cccnc3)nc3sc4c(c23)CCN(Cc2ccccc2)C4)cc1OC | 124 to 125 |
| CCCCn1c(=O)c2nn(S(=O)(=O)c3ccc(C(C)(C)C)cc3)cc2n(CCCC)c1=O | 158 to 159 |
| O=C(CCNC(=O)[C@H](Cc1ccc(-c2ccccc2)cc1)NCP(=O)(Oc1ccccc1)Oc1ccccc1)OCc1ccccc1 | 83 to 84 |
| CC(C)OP(=O)(Cc1c(C(C)(C)C)cc(O)cc1C(C)(C)C)OC(C)C | 100 |
| Cc1cc(O)c(N)c([N+](=O)[O-])c1 | 197 to 199 |
| O=[N+]([O-])c1ccc2nc(-c3ccc4c(c3)OCO4)ncc2c1 | 220 to 222 |
| Cc1cc(-c2nnc3c4ccccc4c(OCc4ncnn4C)nn23)no1 | 256 to 258 |
| C[C@H]1c2ccccc2N(C(=O)CCl)[C@H]1C (relative stereo) | 83 to 84 |
| Cc1c(Cl)n(C)n(C)c1=O | 37 to 38 |
| CCCCCCOc1ccc(C2OCC(C(=O)O)CO2)cc1 (stereo not drawn) | 30 |
| CC(=O)N1CCN(c2ccc(Nc3nccc(-c4sc(Nc5ccccc5)nc4C)n3)cc2)CC1 | 245 to 246 |
| Cc1ccncc1C(O)c1ccc2cc(CO)ccc2c1 (stereo not drawn) | 151 to 153 |
| CCOC(=O)c1cc2cccc(NC(=O)c3cc(OCc4ccccc4F)cc(OCc4ccccc4F)c3)c2[nH]1 | 157 to 158 |
| COc1ccc(OCc2cn(C34CC5CC(CC(C5)C3)C4)nn2)cc1OC | 108 to 112 |
| CC(C)OC(=O)c1cc(N=c2sc(=O)n3n2CCCC3)c(F)cc1F | 86 to 88 |
| COc1cccc(CNc2ncnc3c2sc2nc(N(C)C)c4c(c23)C(C)(C)CC4)c1OC | 91.9 to 93.6 |
| Clc1cccc2c1CNC(=Nc1ccccc1)CS2 | 150 to 152 |
| CCCOc1ccccc1-c1nc2ncncc2c(=O)[nH]1 | 142 to 143 |
| CCCNC(=O)c1ccc(C)c(-c2nc(N(C)CCCN(C)C)nc3c2ccc(=O)n3-c2c(F)cccc2F)c1 | 104 to 109 |
| O=[N+]([O-])c1ccc2c(c1)CCNCC2 | 53 to 56 |
| Cn1ncnc1COc1nn2c(-c3ccccc3)nnc2cc1C1CCCCC1 | 192 |
| CC(c1cc(F)ccc1Oc1nc2ccc(-n3cc(-c4ccccc4)nn3)cc2cc1Cc1ccccc1)n1ccnc1 (stereo not drawn) | 118 to 120 |
| O=C(Nc1ccccc1)c1ccc([N+](=O)[O-])cc1 | 90 to 93 |
| O=C(O)Cc1ccc(OCCNC(=O)C2Cc3ccccc3N2S(=O)(=O)c2ccc(-c3cc(C(F)(F)F)ccc3Cl)cc2)cc1 (stereo not drawn) | 84 |

| Structure (SMILES) | melting point [°C] |
| --- | --- |
| COc1cccc2cnc(C)nc12 | 131 to 132 |
| CSc1cc(N)ccc1[N+](=O)[O-] | 178 to 182 |
| O=C(Cl)c1cc([N+](=O)[O-])cc2c1OCCO2 | 108 |
| CS(=O)(=O)c1ccc(-c2cc([N+](=O)[O-])sc2-c2ccc(F)cc2)cc1 | 155 to 156 |
| OCc1c(C(F)(F)F)nn2ccc3c(c12)CCO3 | 151 to 153 |
| O=[N+]([O-])C=C(NCCCCc1nc[nH]c1Br)NCCCCc1nc[nH]c1Br | 198 to 200 |
| COc1cc(C2C3=C(CNC3=O)Nc3cc4c(cc32)OCO4)cc(OC)c1OC (stereo not drawn) | 244 |
| COC(=O)C(C(=O)c1ccc(Cn2ccc3ccc(NC(=O)CC4CCCC4)cc32)c(OC)c1)S(=O)(=O)c1ccccc1 (stereo not drawn) | 93 to 98 |
| CCOC(=O)N1CCc2nc(-c3ccncn3)cc(=O)n2CC1 | 144 to 146 |
| CSC(c1ccc(Cl)cc1)C(C(=O)C(C)(C)C)n1cncn1 (stereo not drawn) | 145 |
| O=C1c2ccccc2CN1CCN1CCC(c2noc3cc(F)ccc23)CC1 | 166 to 168 |
| CN(C(c1ccccc1)c1ccccc1)S(=O)(=O)CC(N)=O | 110 to 115 |
| O=C1c2ccccc2C(=O)N1OCc1cn(C(c2ccccc2)(c2ccccc2)c2ccccc2)nn1 | 195 to 200 |
| Cn1c(C(F)(F)F)ccc(-c2cc(NS(C)(=O)=O)c(Cl)cc2F)c1=O | 113 to 114 |
| COc1cn(-c2ccc(-c3cnn(C(F)F)c3)cc2F)nc(-c2ccnn2-c2ccccc2)c1=O | 185 to 187 |
| CC(=O)NC[C@H]1CN(c2ccc3c(c2)C[C@@H](C)N3C(=O)COC(C)=O)C(=O)O1 | 186 to 187 |
| O=C(O)Cc1cccc2nnsc12 | 148 to 150 |
| COc1cc(O)ccc1/C=C/c1ccc(O)cc1 | 192 to 194 |
| CC(Cc1ccc(O)cc1)N(CC(=O)c1ccccc1)Cc1ccc(OCc2ccccc2)c([N+](=O)[O-])c1 (stereo not drawn) | 84 to 85 |
| COC(=O)c1ccc(CN(OC)C(=O)C=C(O)C(=O)O)cc1 | 123 to 125 |
| Cc1c(C)c(N2Cc3cc4c(cc3C2)OCO4)c(C)c2c1OC(C)(C)C2c1ccccc1 (stereo not drawn) | 245 to 248 |
| CCCCCC(CC(=O)Nc1cc(C(N)=O)ccc1C(C)(C)C)c1ccc(OCCOC)cc1OC (stereo not drawn) | 134 to 135 |
| O=C1CSCC(=O)C1C(=O)Nc1ccc(Cl)c(C(F)(F)F)c1 | 108 to 110 |
| CC(C)(O)c1cc(C(C)(C)O)cc(C(C)(C)O)c1 | 148 to 150 |
| COc1cccc(-c2nc3cc(C4=NNC(=O)SC4C)ccc3n2CC(C)C)c1 (stereo not drawn) | 100 to 105 |

| Structure (SMILES) | melting point [°C] |
| --- | --- |
| C=C(F)C(=O)Oc1c(I)cc(C(F)(F)F)cc1I | 93 to 95 |
| Cn1c(=O)c(C(=O)C2=C(O)CCCC2=O)nc2ccccc21 | 191 to 192 |
| CC(=O)c1ccc(-c2ccc(O)c(F)c2)cc1 | 155 to 158 |
| NNc1ncnc(Nc2ccc(F)c(C(F)(F)F)c2)n1 | 181 to 182 |
| CN(c1cccc2cc(-c3nccs3)[nH]c12)S(=O)(=O)c1ccsc1CSCC(=O)O | 193 |
| COc1cccc(NC(=O)NCc2ccc(Nc3n[nH]c4ncnc(Nc5cccc(Cl)c5)c34)cc2)c1 | 157 to 160 |
| COc1ccc(C(=O)N2CSCC2=O)cc1 | 123 to 124 |
| Cc1ccccc1OC(C)C(=O)OC1CC(O)C=C2C=CC(C)C(CCC3CC(O)CC(=O)O3)C21 (mixture of isomers) | 85 to 87 |
| CCCCN(CCCC)CCCOc1ccc(C(=O)c2c(-c3ccccc3)cc3cc(C(=O)OCC)ccn23)cc1 | 148 to 151 |
| COC(=O)c1cn(-c2ccc(O)cc2C)c(C2CCC(Br)C(Br)C2)cc1=O (stereo not drawn) | 197 to 200 |
| Cc1c(N)c(C)c2c(c1-c1ccccc1)OCC2c1ccc(C(C)C)cc1 (stereo not drawn) | 101 to 102 |
| O=C(O)c1ccc2nc3sc(-c4ccccc4)cc3c(=O)n2c1 | 387 to 392 |
| CC(C)(C)c1csc(C(C#N)=C(O)c2c(F)cccc2F)n1 | 207 to 209 |
| Cc1ccccc1Cc1n[nH]c2c1c(=O)n(-c1cccc(OC(F)(F)F)c1)c1ncccc21 | 240 to 242 |
| CN(N)C(=S)Nc1ccc(C#N)cc1 | 178 to 179 |
| N#CC(C#N)C(=O)c1ccsc1 | 132 to 133 |
| CCCCC1(c2cccc(O)c2)CCCCN(C)C1=O (stereo not drawn) | 138 to 142 |
| Cc1ccccc1-c1cccc(C(=O)O)c1 | 127 |
| O=Cc1ccc2c(c1)OCC(=O)N2 | 178 to 180 |
| OCc1nc2cnc3ccccc3c2n1Cc1ccccc1 | 211 to 213 |
| CCOc1ccc(CCC=[N+]([O-])C(C)(C)C)cc1 | 54 to 57 |
| Cc1cc2c(-c3ccccc3Cl)c(NC(=O)Nc3ccc(F)cc3F)c(=O)n(C)c2cc1C | 242 to 244 |
| C=C1NC(=O)OC12CCN(Cc1ccccc1)CC2 | 169 to 170 |
| CCC(=NO)c1ccc(Sc2cc(F)cc([C@@]3(OC)CCO[C@@H]3C)c2)cc1 (racemic) | 113 to 114 |
| NC(=O)N(O)Cc1ccc(OCCc2noc(-c3ccccc3)n2)cc1 | 135 to 136 |

| Structure (SMILES) | melting point [°C] |
| --- | --- |
| COc1cc(C(=O)Cc2ccccc2)ccc1O | 107 to 108 |
| Cn1cncc1C(O)(c1ccc(Cl)cc1)c1ccc2c(c1)C(c1cccc(Cl)c1)OCC(=O)N2 (stereo not drawn) | 260 |
| CCCCCCS(=O)(=O)c1ccc(Oc2ccc(Br)cc2)nc1 | 94 |
| COc1ccccc1-c1nc2cc(NC(=O)c3c(C(=O)O)cnn3C)ccn2n1 | 283 |
| O=C1c2nccc(Cl)c2C(=O)c2c(-c3ccccc3NC(=O)C(F)(F)F)ccnc21 | 152 |
| CCc1nc2cc(C(F)(F)F)c(Cl)cc2n1-c1ccc(C[C@H](C)OC(=O)NS(=O)(=O)c2ccc(C)cc2)cc1 | 200 |
| CCCc1c(C(=O)N(CC)CC)ccc(OC)c1OC | 65 to 67 |
| CCC1c2c([nH]c(=O)c(O)cc2=O)CC(Cl)C1Cl (stereo not drawn) | 197 |
| O=C(O)COc1ccccc1-c1ccc(Cl)c(C(=O)NCC23CC4CC(CC(C4)C2)C3)c1 | 208 to 210 |
| COC(=O)C(=O)c1ccc(OCCOc2ccc3cc4ccccc4cc3c2)cc1 | 188 to 189 |
| CN1C(=O)C(C)(C)N=C(c2ccccc2Cl)c2c1ccc(N)c2Br | 188 to 189 |
| COC(=O)C(=O)c1ccc(OC/C=C/c2ccc3ccccc3c2)cc1 | 100 to 102 |
| CCOCCOc1cc(N2C(=O)C3=C(CCCC3)C2=O)c(F)cc1C#N | 90 |
| C=CCCOc1ccc2c(c1)C(=O)c1cc3ccccc3cc1C2=O | 149 |
| CC1=C(C(=O)Nc2cccc(C#N)c2)SCCO1 | 119 to 121 |
| N#Cc1ccc(-c2ccc(C#N)cc2-c2nc3ccccc3[nH]2)c(-c2nc3ccccc3[nH]2)c1 | 347 to 349 |
| CNC(=O)N(OC)c1ccc(Oc2ccc3sncc3c2)cc1 | 108 |
| CC(=NNC(=S)N1CC2CCC(CC2)C1)c1ccccn1 | 156 |
| COc1cccc(CC(=S)N2CCCCC2)c1 | 55 to 56 |
| CCCN(CCC)CC1CCCN(CCNC(=O)N2c3ccccc3NC(=O)c3c2ccn3C)C1 (stereo not drawn) | 153 to 155 |
| Oc1ccc2c(c1)CCC(CNCC(O)c1ccc(Cl)cc1)C2 (stereo not drawn) | 150 to 153 |
| C=CCNC(=O)NC(CCC)(CCC)CCC | 66 |
| CC(=O)c1cc(Cl)sc1SCc1ccccc1 | 86 to 88 |
